These results are taken from patent US20200206349A1, “Immunothermosensitive Composite, Kit For Treating Cancer, And Use Thereof” (National Tsing Hua University, priority 2018, published 2020).

In one data set the test system is BMDCs. Kind of data set: Proinflammatory cytokines secreted by BMDCs (bead arrays). It is filed as cell-based, Balb/c mice. How it is done: The dendritic cells used in the experiment are dendritic cells differentiated from bone marrow cells (BMDC). […] After 10 days, suspended immature BMDCs are collected for further experiments. […] The cellular uptake of the f-PANI-GCS-R848 by the BMDCs is measured by flow cytometry and immunofluorescence staining. The experiment further includes the BMDCs treated with medium only as a control. Flow cytometry is performed to measure the cell uptake of f-PANI-GCS-R848 by BD Accuri™ C6 flow cytometer (BD Biosciences, San Jose, Calif., USA), and data are analyzed using FlowJo (Treestar, Ashland, Oreg., USA). In immunofluorescence staining, LysoTracker is used as a cell marker for endosome. The BMDCs are incubated with LysoTracker™ Red DND-99 (Thermo Fischer Scientific) containing medium for 2 hours, washed, and stained with 4′,6-diamidino-2-phenylindole (DAPI) in PBS for 10 minutes. Finally, the BMDCs are observed and imaged under a confocal laser scanning microscopy (CLSM, LSM 780, Carl Zeiss, Jena, Germany). […] The BMDCs and the culture supernatants are then collected separately. The expression of mature dendritic cell markers CD80 and CD86 in the treated BMDCs are analyzed by flow cytometry, and the concentrations of inflammatory cytokines secreted by mature dendritic cells in the supernatant are measured by […] beads arrays (CBA, BD Bioscience). The experiment further includes the BMDCs treated with medium only as negative controls (represented as “PBS”). The flow cytometry includes follow steps. The BMDCs are incubated with APC-conjugated anti-mouse CD80 antibody (eBioscience) or FITC-conjugated anti-mouse CD86 Antibody (eBioscience), and then analyzed by BD Accuri™ C6 flow cytometer.

The test system of a further data set is CT26 primary tumor. The experiment in a line: Animal treatment test: primary tumor size and survival. It is filed as in vivo, Balb/c mice. Particulars: without NIR; treated day 14, 21, 28. The protocol: Experimental animals used in the experiments are Balb/c mice (6-8 weeks old), which are purchased from BioLASCO Taiwan Co., Ltd. (Taipei, Taiwan). All the animal experiments are performed according to “Guide for the Care and Use of Laboratory Animals” developed by the Institute of Laboratory Animal Resources, National Research Council. Balb/c mice are inoculated with 1×10^6 CT26 cells subcutaneously on their right flanks (primary tumor). Fourteen days later when the tumor diameter is about 5 mm (or the tumor volumes reach 150-200 mm^3), the Balb/c tumor mice are established and further used to test the cancer treatment effects on the immunothermosensitive composition and the kit for treating cancer of the present disclosure, and whether the immunothermosensitive composition and the kit for treating cancer of the present disclosure can achieve the dual effects of hyperthermia therapy and immunotherapy.
Further, the cancer treatment effects on the immunothermosensitive composition and the kit for treating cancer of the present disclosure is confirmed in the experiment. […] The size of each primary tumor, which is estimated as length×width×height×π/6, is assessed using a pair of caliper every 2-3 days. […] The Balb/c tumor mice with the rechallenged tumor are no longer treated, but the size of each rechallenged tumor is observed and recorded. […]

The test system of the next data set is CT26 cells. Kind of data set: Cytotoxicity, CellTiter-Glo cell viability assay. It is filed as cell-based, murine. As to conditions: 0.625 μg/mL to 10 μg/mL, 24 hours. The protocol: The experiment further includes untreated CT26 cells, the CT26 cells treated with free R848 or the CT26 cells treated with the carrier PANI-GCS as a control. […] The CT26 cells are seeded in 96-well plates at 1×10^4 cells/well for 24 hours. […] The viability of the CT26 cells is evaluated by the CellTiter-Glo® Luminescent Cell Viability Assay kit (Promega, Madison, Wis., USA).
(In general: Cellular ATP, detected with luciferase, serves as a proxy for viable cell number.)

Where [1] appears, read: at 24 hours, 5 μg/mL free R848, 50 μg/mL PANI-GCS-R848.
Where [2] appears, read: at 48 hours and 72 hours (after 24 hours).

Each structure is given as a SMILES string.

Take `CCOCc1nc2c(N)nc3ccccc3c2n1CC(C)(C)O` [R848, resiquimod]: the IL-6 secretion entry is recorded as “notable levels” in the data set on BMDCs (setting [1]) and “do not change significantly” in the data set with BMDCs (setting [2]). For the same compound, the TNF-α secretion result is given as “notable levels” with BMDCs (setting [1]) and “do not change significantly” with BMDCs (setting [2]). The “growth of the primary tumor” value with CT26 primary tumor is on record as “slightly delayed”. Besides, in the data set on CT26 cells, the “cytotoxicity (cell viability)” value is “not significantly cytotoxic”.
